Laboratory results published in patent EP0045161A1, “Amides of 4-oxo-5-amidohexanoic acid derivatives” (IMPERIAL CHEMICAL INDUSTRIES PLC, priority 1980, dated 1982).

Molecular target: angiotensin converting enzyme (Homo sapiens, UniProt P12821)
Test: inhibition of angiotensin converting enzyme (cleavage of angiotensin I or a related synthetic peptide by ACE)
Type: biochemical
Source text: ACE is the enzyme which converts angiotensin I to angiotensin II.

angiotensin converting enzyme, sequence (P12821 30-1306, species assumed): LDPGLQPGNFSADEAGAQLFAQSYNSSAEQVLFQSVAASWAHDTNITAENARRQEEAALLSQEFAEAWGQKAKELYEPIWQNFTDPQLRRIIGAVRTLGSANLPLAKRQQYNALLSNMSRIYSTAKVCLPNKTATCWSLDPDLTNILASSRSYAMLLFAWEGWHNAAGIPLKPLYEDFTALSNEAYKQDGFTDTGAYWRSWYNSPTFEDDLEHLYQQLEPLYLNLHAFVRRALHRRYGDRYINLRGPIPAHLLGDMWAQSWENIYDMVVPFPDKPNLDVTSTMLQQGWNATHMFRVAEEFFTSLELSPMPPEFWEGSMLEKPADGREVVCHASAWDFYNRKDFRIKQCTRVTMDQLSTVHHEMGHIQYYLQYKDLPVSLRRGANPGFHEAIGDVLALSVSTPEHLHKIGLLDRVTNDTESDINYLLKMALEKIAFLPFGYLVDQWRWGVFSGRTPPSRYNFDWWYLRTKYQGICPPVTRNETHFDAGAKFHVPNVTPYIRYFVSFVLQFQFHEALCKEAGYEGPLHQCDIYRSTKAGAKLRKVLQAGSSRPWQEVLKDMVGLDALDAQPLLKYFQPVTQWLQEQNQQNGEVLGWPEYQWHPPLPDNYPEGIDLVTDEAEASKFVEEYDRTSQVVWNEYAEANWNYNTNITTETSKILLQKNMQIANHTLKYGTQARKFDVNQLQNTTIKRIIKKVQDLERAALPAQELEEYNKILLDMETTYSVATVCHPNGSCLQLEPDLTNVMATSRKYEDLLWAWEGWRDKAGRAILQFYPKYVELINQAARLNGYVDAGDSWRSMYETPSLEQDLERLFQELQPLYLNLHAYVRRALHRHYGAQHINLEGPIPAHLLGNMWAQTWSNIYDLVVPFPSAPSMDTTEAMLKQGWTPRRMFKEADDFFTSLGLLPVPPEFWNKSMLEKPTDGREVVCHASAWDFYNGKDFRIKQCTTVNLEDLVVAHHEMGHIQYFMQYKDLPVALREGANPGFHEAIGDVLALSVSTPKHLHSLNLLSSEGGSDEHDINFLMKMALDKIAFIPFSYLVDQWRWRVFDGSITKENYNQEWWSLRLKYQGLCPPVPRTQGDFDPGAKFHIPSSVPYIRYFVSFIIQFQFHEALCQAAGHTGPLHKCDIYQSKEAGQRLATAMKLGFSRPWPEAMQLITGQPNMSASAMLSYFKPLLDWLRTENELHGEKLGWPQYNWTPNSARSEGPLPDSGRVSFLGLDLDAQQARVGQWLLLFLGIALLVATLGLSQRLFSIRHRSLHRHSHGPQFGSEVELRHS

Row | SMILES | times more active as an inhibitor of angiotensin converting enzyme (relative to the more polar isomer (Compound No. 6B), isomers at the 2-carbon atom of the hexanoyl chain) [times] | times more active as an inhibitor or angiotensin converting enzyme (relative to the less polar isomer (Compound No. 6D), isomers at the 5-carbon atom of the hexanoyl chain) [times]
1 | CC(CC(=O)C(Cc1ccccc1)NC(=O)c1ccccc1)C(=O)N1CCC[C@H]1C(=O)OC(C)(C)C (single isomer, unassigned) [Compound No. 6A] | 10 | 
2 | CC(CC(=O)C(Cc1ccccc1)NC(=O)c1ccccc1)C(=O)N1CCC[C@H]1C(=O)OC(C)(C)C (single isomer, unassigned) [Compound No. 6C] |  | 100
